# Patent US20260103471A1, “CYCLIC UREA THIAZOLYL COMPOUNDS FOR TREATMENT OF HSV” (Assembly Biosciences, Inc., priority 2022, published 2026)
# pEC50: −log10 of the molar value. Read-outs that look alike come from different tables or passages of the source.
# How the values were obtained:
# HSV-1 = HSV-1 Antiviral Assay (Vero cells, cell viability); type: cell-based; conditions: Vero cells, read-out: HSV-1 EC50
# Description: Vero cells were cultured in Dulbecco's Modified Eagle Medium (DMVEM) supplemented with […] and 100 units/mL penicillin and streptomycin. The cells were passaged 2-3 times per week to maintain sub-confluent densities.
# Vero cells were seeded into 96-well plates at a density of 2.5×10^3 cells per well and allowed to attach overnight. Following attachment, the media was replaced with 50 μL of infection medium (DMVEM supplemented with 2% fetal bovine serum and 100 units/mL penicillin and streptomycin). A Tecan D300e digital dispenser was then used to add compounds to the culture using an 8-point 3-fold serial dilution format. The DMSO concentration was normalized to 0.5% for all treatments. Following compound addition, 50 μL of infection medium containing 80 TCID50 HSV-1 was added to the cells and incubated at 37° C. for 4 days. After the incubation, the plates were equilibrated to room temperature, the media was removed, and […] a 1:1 dilution of Cell titer glow and phosphate buffered saline was added to the cells. Following a 5-minute incubation, cell viability was quantified by measuring luminance using a Tecan Infinite M1000 Pro plate reader.
# HSV-2 G strain = test: HSV-2 Antiviral Assay (Vero cells, cell viability); type: cell-based; conditions: for pEC50: Vero cells, 5 days
# Procedure, shortened: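 Antiviral readout is survival of infected Vero cells: after 5 days at 37 °C with 160 TCID50 HSV-2 G strain plus serially diluted compound (8 points, 3-fold, 0.5% DMSO), WST-8 was added for 3 h and absorbance measured at 460/620 nm. Cells seeded at 1.0×10^4 per well.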
# [1] = Human alphaherpesvirus 1, 96 h, 80 TCID50 HSV-1, 4 days, cell viability
# [2] = Human alphaherpesvirus 2, Vero, 120 h, 160 TCID50 HSV-2 G strain, cell viability
Compound,pEC50 (HSV-1; [1]),pEC50 (HSV-2 G strain; [2]),other results
Cc1nc(N2CCCN(c3ccc(-c4cccnc4)cc3)C2=O)sc1S(N)(=O)=O [Compound 2],6.00 to 7.00,6.00 to 7.00,–
COc1ccccc1-c1ccc(N2CCCN(c3nc(C)c(S(N)(=O)=O)s3)C2=O)cc1 [Compound 10],> 7.00,> 7.00,–
Cc1nc(N2CCCN(c3ccc(-c4cccc5c4CC(=O)N5C)cc3)C2=O)sc1S(N)(=O)=O [Compound 77],6.00 to 7.00,6.00 to 7.00,–
Cc1nc(N2CCCN(c3ccc(-c4cccc5c4cnn5CC(C)(C)O)cc3)C2=O)sc1S(N)(=O)=O [Compound 60],5.30 to 6.00,5.30 to 6.00,–
Cc1nc(N2CCCN(c3ccc(-c4cccc5cnccc45)cc3)C2=O)sc1S(N)(=O)=O [Compound 85],> 7.00,> 7.00,–
Cc1nc(N2CCCN(c3ccc(-c4cc(Br)ccc4F)cc3)C2=O)sc1S(N)(=O)=O [Compound 25],> 7.00,> 7.00,–
Cc1nc(N2CCCN(c3cccc(-c4ccccn4)c3)C2=O)sc1S(N)(=O)=O [Compound 4],6.00 to 7.00,6.00 to 7.00,–
Cc1nc(N2CCCN(c3cccc(-c4cc(F)ccc4F)c3)C2=O)sc1S(N)(=O)=O [Compound 16],6.00 to 7.00,6.00 to 7.00,–
Cc1nc(N2CCCN(c3ccc(-c4cccc5[nH]cnc45)cc3)C2=O)sc1S(N)(=O)=O [Compound 74],6.00 to 7.00,6.00 to 7.00,–
Cc1nc(N2CCCN(c3ccc(-c4ccncc4)cc3)C2=O)sc1S(N)(=O)=O [Compound 3],6.00 to 7.00,6.00 to 7.00,–
Cc1nc(N2CCCN(c3ccc(-c4cccc5c4cnn5C)cc3)C2=O)sc1S(N)(=O)=O [Compound 55],> 7.00,> 7.00,–
Cc1nc(N2CCCN(c3ccc(-c4ccnn4C)cc3)C2=O)sc1S(N)(=O)=O [Compound 40],5.30 to 6.00,5.30 to 6.00,–
Cc1nc(N2CCCN(c3ccc(-c4cc(F)cc5nsnc45)cc3)C2=O)sc1S(N)(=O)=O [Example 259],–,–,"pEC50 (HSV-1; Human alphaherpesvirus 1, 96 h, 4 days): 8.00; pEC50 (HSV-2 G strain; Human alphaherpesvirus 2, Vero, 120 h): 8.15; fold more active than Example 314 (5-membered ring analog) (HSV-2 G strain; ratio of EC50 vs Example 314, assay not stated, HSV-2 values only): 4 fold"
"Cc1nc(N2CCCN(c3ccc(-c4nccs4)cc3)C2=O)sc1S(N)(=O)=O [Compound 42, 4-Methyl-2-(2-oxo-3-(4-(thiazol-2-yl)phenyl)tetrahydropyrimidin-1(2H)-yl) thiazole-5-sulfonamide]",> 7.00,> 7.00,–
Cc1nc(N2CCCN(c3ccc(-c4nc5ccccc5s4)cc3)C2=O)sc1S(N)(=O)=O [Compound 88],6.00 to 7.00,5.30 to 6.00,–
Cc1nc(N2CCCN(c3ccc(-c4ccccc4F)cc3)C2=O)sc1S(N)(=O)=O [Compound 8],> 7.00,> 7.00,–
Cc1nc(N2CCCN(c3ccc(-c4ncccc4F)cc3)C2=O)sc1S(N)(=O)=O [Compound 35],> 7.00,> 7.00,–
Cc1nc(N2CCCN(c3ccc(-c4ccc5c(cnn5C)c4)cc3)C2=O)sc1S(N)(=O)=O [Compound 52],5.30 to 6.00,5.30 to 6.00,–
Cc1nc(N2CCCN(c3ccc(-c4cccc(F)c4)cc3)C2=O)sc1S(N)(=O)=O [Compound 13],> 7.00,> 7.00,–
Cc1nc(N2CCCN(c3ccc(-c4cc(F)ccc4C#N)cc3)C2=O)sc1S(N)(=O)=O [Compound 24],> 7.00,> 7.00,–
"Cc1nc(N2C[C@H](C#N)CN(c3ccc(-c4cc(F)ccc4F)cc3)C2=O)sc1S(N)(=O)=O (single isomer, unassigned) [Compound 376]",–,–,"pEC50 (HSV-1; 80 TCID50 HSV-1, 4 days, cell viability): > 7.00; pEC50 (HSV-2 G strain; 160 TCID50 HSV-2 G strain, cell viability): > 7.00"
Cc1nc(N2CCCN(c3ccc(-c4cccc(F)c4F)cc3)C2=O)sc1S(N)(=O)=O [Compound 6],> 7.00,> 7.00,–

# Second part, led by results:
pEC50 (HSV-1; [1]),pEC50 (HSV-2 G strain; [2]),Compound,other results
> 7.00,> 7.00,"Cc1nc(N2CC3(COC3)CN(c3ccc(-c4cc(F)ccc4F)cc3)C2=O)sc1S(N)(=O)=O [Compound 339, 2-(8-(2′,5′-difluoro-[1,1′-biphenyl]-4-yl)-7-oxo-2-oxa-6,8-diazaspiro[3.5]nonan-6-yl)-4-methylthiazole-5-sulfonamide]",–
6.00 to 7.00,6.00 to 7.00,Cc1nc(N2CCCN(c3ccc(-c4cc(F)ccc4F)cc3)C2=O)sc1S(=O)(=O)C1CC1 [Compound 163],–
> 7.00,> 7.00,Cc1nc(N2CCCN(c3ccc(-c4cc(F)cc5ncsc45)cc3)C2=O)sc1S(N)(=O)=O [Compound 255],–
> 7.00,> 7.00,Cc1nc(N2CCCN(c3ccc(-c4nsc5ccccc45)cc3)C2=O)sc1S(N)(=O)=O [Compound 310],–
6.00 to 7.00,6.00 to 7.00,Cc1nc(N2CCCN(c3ccc(-c4nc5c(F)cccc5s4)cc3)C2=O)sc1S(N)(=O)=O [Compound 90],–
> 7.00,> 7.00,Cc1nc(N2CCCN(c3ccc(-c4snc5ccccc45)cc3)C2=O)sc1S(N)(=O)=O [Compound 305],–
> 7.00,> 7.00,Cc1nc(N2CCCCN(c3ccc(-c4ccccc4F)cc3)C2=O)sc1S(N)(=O)=O [Compound 102],–
> 7.00,> 7.00,CNS(=O)(=O)c1sc(N2CCCN(c3ccc(-c4ccccn4)c(F)c3)C2=O)nc1C [Compound 128],–
> 7.00,> 7.00,"Cc1nc(N2CCCN(c3cc(F)c(-c4ccccc4)cc3F)C2=O)sc1S(N)(=O)=O [Compound 99, 2-(3-(2,5-Difluoro-[1,1′-biphenyl]-4-yl)-2-oxotetrahydropyrimidin-1(2H)-yl)-4-methylthiazole-5-sulfonamide]",–
> 7.00,> 7.00,CNc1cccc(-c2ccc(N3CCCN(c4nc(C)c(S(=O)(=O)NC)s4)C3=O)cc2)n1 [Compound 124],–
6.00 to 7.00,6.00 to 7.00,O=C1N(c2ccc(-c3cc(F)ccc3F)cc2)CCCN1c1ncc(S(=O)(=O)C2CC2)s1 [Compound 166],–
> 7.00,> 7.00,CNS(=O)(=O)c1sc(N2CCCN(c3ccc(-c4ccccn4)cc3)C2=O)nc1C [Compound 118],–
> 7.00,> 7.00,"Cc1nc(N2CCCN(c3ccc(-c4cc(F)cc(-c5cnn(C(F)F)c5)c4F)cc3)C2=O)sc1S(N)(=O)=O [Compound 228, 2-(3-(3′-(1-(difluoromethyl)-1H-pyrazol-4-yl)-2′,5′-difluoro-[1,1′-biphenyl]-4-yl)-2-oxotetrahydropyrimidin-1(2H)-yl)-4-methylthiazole-5-sulfonamide]",–
> 7.00,> 7.00,Cc1nc(N2CC(C(C)(C)F)CN(c3ccc(-c4cc(F)ccc4F)cc3)C2=O)sc1S(N)(=O)=O (stereo not shown) [Compound 369],–
> 7.00,> 7.00,Cc1nc(N2CCCN(c3ccc(-c4cc(F)ccc4Cl)cc3)C2=O)sc1S(N)(=O)=O [Compound 193],–
> 7.00,> 7.00,Cc1nc(N2CCCN(c3cc(F)c(-c4ccccn4)cc3F)C2=O)sc1S(N)(=O)=O [Compound 98],–
> 7.00,> 7.00,Cc1nc(N2CCCN(c3ccc(-c4cc(F)cc(Br)c4F)cc3)C2=O)sc1S(N)(=O)=O [Compound 212],–
> 7.00,> 7.00,CNS(=O)(=O)c1sc(N2CCCCN(c3ccc(-c4ccccn4)cc3)C2=O)nc1C [Compound 138],–
> 7.00,> 7.00,Cc1nc(N2CCCN(c3ccc(-c4cc(F)cc(-c5cnn(C)c5)c4F)cc3)C2=O)sc1S(N)(=O)=O [Compound 210],–
6.00 to 7.00,6.00 to 7.00,CC(=O)N1CC2(C1)CN(c1ccc(-c3cc(F)ccc3F)cc1)C(=O)N(c1nc(C)c(S(N)(=O)=O)s1)C2 [Compound 338],–
> 7.00,> 7.00,Cc1nc(N2CCCN(c3ccc(-c4cc(F)cc(-c5cncs5)c4F)cc3)C2=O)sc1S(N)(=O)=O [Compound 211],–
> 7.00,> 7.00,Cc1nc(N2CC3(COC3)CN(c3ccc(-c4cc(F)cc(-c5cnn(C(F)F)c5)c4F)cc3)C2=O)sc1S(C)(=O)=O [Compound 434],–
> 7.00,> 7.00,"Cc1nc(N2C[C@H](C#N)CN(c3ccc(-c4cc(F)ccc4F)cc3)C2=O)sc1S(N)(=O)=O (single isomer, unassigned) [Compound 361]",–
> 7.00,> 7.00,NS(=O)(=O)c1sc(N2CCCN(c3ccc(-c4cc(F)ccc4F)cc3)C2=O)nc1Cl [Compound 171],–
> 7.00,> 7.00,"Cc1nc(N2CCCN(c3ccc(-c4cc(F)ccc4F)cc3)C2=O)sc1[S@](C)(=N)=O (single isomer, unassigned) [Compound 141]",–
> 7.00,> 7.00,"Cc1nc(N2CCCN(Cc3cccc(-c4cc(F)ccc4F)c3)C2=O)sc1S(N)(=O)=O [Compound 172, 2-(3-((2′,5′-Difluoro-[1,1′-biphenyl]-3-yl)methyl)-2-oxotetrahydropyrimidin-1(2H)-yl)-4-methylthiazole-5-sulfonamide]",–
